Assay results from article PMC7366380, “Discovery of a Potent and Selective Covalent Inhibitor and Activity-Based Probe for the Deubiquitylating Enzyme UCHL1, with Antifibrotic Activity” (Journal of the American Chemical Society, 2020).

How the values were obtained:
[1] = target: T1, USP19 (Homo sapiens, UniProt O94966); assay: Biochemical DUB selectivity profiling assay: USP19; details: Ub-Lys-TAMRA 50 nM, buffer A; read-out: Biochemical IC50 range, USP19
T1 sequence (O94966 1-1318): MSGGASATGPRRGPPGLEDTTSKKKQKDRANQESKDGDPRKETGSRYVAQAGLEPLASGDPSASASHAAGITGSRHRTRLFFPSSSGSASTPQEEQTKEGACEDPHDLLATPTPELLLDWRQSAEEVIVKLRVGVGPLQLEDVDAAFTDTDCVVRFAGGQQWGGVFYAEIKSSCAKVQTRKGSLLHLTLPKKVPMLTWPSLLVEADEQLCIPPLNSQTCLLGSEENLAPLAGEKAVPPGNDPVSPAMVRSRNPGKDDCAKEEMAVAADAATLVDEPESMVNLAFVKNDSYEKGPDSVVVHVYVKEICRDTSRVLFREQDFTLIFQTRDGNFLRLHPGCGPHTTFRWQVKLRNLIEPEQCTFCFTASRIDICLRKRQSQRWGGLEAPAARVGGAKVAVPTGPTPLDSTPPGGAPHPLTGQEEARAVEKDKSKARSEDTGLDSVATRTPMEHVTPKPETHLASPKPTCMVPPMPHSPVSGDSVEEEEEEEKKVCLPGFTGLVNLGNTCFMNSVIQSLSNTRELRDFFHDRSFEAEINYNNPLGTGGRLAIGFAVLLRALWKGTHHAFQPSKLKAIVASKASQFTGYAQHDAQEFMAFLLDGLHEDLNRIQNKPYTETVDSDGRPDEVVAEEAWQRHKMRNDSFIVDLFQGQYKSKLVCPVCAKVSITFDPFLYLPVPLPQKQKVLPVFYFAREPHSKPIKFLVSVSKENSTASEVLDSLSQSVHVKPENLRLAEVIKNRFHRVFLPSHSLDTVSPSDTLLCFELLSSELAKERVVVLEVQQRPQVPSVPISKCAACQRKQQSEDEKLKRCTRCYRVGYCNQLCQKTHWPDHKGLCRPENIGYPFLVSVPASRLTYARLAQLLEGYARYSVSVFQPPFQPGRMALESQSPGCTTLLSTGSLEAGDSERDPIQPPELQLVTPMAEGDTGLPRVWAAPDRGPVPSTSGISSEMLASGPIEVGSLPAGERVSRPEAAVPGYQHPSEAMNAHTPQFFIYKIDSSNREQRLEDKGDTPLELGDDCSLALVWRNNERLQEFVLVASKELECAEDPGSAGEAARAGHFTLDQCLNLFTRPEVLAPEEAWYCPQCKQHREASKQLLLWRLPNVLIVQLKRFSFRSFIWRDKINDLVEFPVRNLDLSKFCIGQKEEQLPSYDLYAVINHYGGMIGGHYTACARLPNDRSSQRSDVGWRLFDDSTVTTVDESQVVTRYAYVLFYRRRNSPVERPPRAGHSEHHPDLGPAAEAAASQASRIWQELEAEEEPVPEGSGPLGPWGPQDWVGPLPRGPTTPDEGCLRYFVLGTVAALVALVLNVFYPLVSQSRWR
Method: DUB Assay Substrate Substrate
Buffer Concentration (nM) […]
Sepharose® 4B resin (GE Healthcare).
10 kDa molecular weight cut-off (MWCO)).
Fractions containing protein
Protein concentration was […]
reaction volume of 21 μL. […]
compound (final concentration 5 nM).
IC50 values were determined
Biochemical DUB selectivity profiling assays […]
in 40 µL total reaction volume.

[2] = target: T2, BAP1 (Homo sapiens, UniProt Q92560); assay: biochemical
T2 sequence (Q92560 1-729): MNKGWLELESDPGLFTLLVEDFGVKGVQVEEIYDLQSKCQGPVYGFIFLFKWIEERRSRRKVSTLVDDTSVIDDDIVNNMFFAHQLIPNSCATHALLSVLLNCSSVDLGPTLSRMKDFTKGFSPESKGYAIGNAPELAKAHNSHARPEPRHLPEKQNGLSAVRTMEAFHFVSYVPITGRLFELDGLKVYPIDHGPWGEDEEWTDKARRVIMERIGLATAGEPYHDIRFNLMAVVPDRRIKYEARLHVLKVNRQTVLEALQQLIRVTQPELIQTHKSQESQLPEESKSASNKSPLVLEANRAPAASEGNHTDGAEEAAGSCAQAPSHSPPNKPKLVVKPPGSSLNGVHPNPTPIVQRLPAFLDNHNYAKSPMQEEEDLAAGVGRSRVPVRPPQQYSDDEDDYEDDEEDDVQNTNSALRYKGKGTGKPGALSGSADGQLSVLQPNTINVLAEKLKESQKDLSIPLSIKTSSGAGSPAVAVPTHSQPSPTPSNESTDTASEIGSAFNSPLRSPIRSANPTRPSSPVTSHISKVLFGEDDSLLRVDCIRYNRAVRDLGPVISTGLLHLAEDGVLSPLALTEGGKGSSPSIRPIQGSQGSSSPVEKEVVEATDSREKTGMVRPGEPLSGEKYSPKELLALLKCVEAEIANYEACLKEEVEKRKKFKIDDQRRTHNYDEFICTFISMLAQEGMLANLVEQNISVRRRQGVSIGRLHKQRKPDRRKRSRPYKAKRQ

[3] = target: T3, OTUB2 (Homo sapiens, UniProt Q96DC9); assay: biochemical
T3 sequence (Q96DC9 1-234): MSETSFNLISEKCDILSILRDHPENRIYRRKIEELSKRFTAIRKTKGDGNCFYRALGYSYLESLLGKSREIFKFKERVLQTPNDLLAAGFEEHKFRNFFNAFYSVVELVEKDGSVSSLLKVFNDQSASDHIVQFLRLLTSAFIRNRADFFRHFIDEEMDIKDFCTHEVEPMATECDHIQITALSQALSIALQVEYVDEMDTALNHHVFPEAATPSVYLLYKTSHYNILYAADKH

Row | IC50 [1] [µM] | IC50 [2] [µM] | IC50 [3] [µM] | Structure (SMILES)
1 | > 10 | 1 to 10 | > 10 | N#CN1CCC[C@H]1C(=O)N1CCc2c(-c3c[nH]c4ncccc34)cccc21 [Compound 1]
2 | > 10 | – | – | C#Cc1cnc2[nH]cc(-c3cccc4c3CCN4C(=O)[C@@H]3CCCN3C#N)c2c1 [Compound 2]
3 | > 10 | > 10 | > 10 | N#CN1CCC[C@@H]1C(=O)N1CCc2c(-c3c[nH]c4ncccc34)cccc21 [Compound 3]

Row | Structure (SMILES) | IC50 [1] [µM] | IC50 [2] [µM] | IC50 [3] [µM]
4 | CC(=O)O/N=C1\C(=O)N(Cc2cc(Cl)ccc2Cl)c2ccc(Cl)cc21 [LDN-57444, reference compound] | > 10 | > 10 | > 10
